ChEMBL document CHEMBL2417463, “Synthesis and identification of new flavonoids targeting liver X receptor β involved pathway as potential facilitators of Aβ clearance with reduced lipid accumulation” (J Med Chem, 2013)
The source made the active and inactive calls. The rule behind the calls is not given here.

Legend:
[1] = target: T1, Oxysterols receptor LXR-beta (Homo sapiens) (UniProt P55055); assay: Agonist activity at human LXRbeta transfected in HEK293 cells at 0.1 uM after 24 hrs by luciferase reporter gene assay relative to vehicle-treated control; assay type: cell-based
T1 sequence (whole entry): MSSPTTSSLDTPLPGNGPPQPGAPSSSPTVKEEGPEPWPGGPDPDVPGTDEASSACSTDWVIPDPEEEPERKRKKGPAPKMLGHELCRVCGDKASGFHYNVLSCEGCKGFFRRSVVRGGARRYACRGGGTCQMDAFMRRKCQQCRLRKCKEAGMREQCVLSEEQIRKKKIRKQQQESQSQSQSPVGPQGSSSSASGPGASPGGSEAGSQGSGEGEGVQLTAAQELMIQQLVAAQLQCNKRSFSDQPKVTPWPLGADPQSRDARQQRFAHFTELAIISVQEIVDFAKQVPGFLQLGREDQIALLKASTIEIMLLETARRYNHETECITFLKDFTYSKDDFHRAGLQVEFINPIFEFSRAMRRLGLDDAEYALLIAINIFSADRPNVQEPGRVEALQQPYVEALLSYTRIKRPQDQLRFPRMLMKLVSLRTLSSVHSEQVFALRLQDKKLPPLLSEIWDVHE

[2] = target: T2, Oxysterols receptor LXR-beta (Mus musculus) (UniProt Q60644); assay: Agonist activity at LXRbeta in mouse BV2 cells assessed as upregulation of apoE protein expression at 1 uM after 48 hrs by Western blot analysis relative to vehicle-treated control; assay type: cell-based; details: BV-2
T2 sequence (whole entry): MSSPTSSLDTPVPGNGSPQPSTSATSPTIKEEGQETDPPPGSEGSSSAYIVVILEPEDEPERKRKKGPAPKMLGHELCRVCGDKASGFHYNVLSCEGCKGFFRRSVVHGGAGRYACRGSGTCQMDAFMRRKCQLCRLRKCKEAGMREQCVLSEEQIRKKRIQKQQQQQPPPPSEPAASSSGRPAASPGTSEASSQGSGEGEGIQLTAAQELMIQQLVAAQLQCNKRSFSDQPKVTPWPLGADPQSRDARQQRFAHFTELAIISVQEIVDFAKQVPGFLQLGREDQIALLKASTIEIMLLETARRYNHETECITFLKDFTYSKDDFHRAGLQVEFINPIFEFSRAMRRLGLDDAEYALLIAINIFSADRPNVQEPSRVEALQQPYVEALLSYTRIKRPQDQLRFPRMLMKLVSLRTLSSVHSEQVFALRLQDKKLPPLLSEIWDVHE

[3] = target: T2, Oxysterols receptor LXR-beta (Mus musculus); assay: Agonist activity at LXRbeta in mouse BV2 cells assessed as degradation of intracellular soluble amyloid beta42 at 0.01 uM preincubated for 18 hrs followed by soluble amyloid beta42 addition measured after 24 hrs by ELISA relative to vehicle-treated control; assay type: cell-based; details: BV-2
[4] = target: T2, Oxysterols receptor LXR-beta (Mus musculus); assay: Agonist activity at LXRbeta in mouse BV2 cells assessed as degradation of intracellular amyloid beta42 preincubated for 18 hrs followed by soluble amyloid beta42 addition measured after 24 hrs by ELISA; assay type: cell-based; details: BV-2
RAW264.7 = assay: Cytotoxicity against mouse RAW264.7 cells assessed as inhibition of cell viability at 50 uM after 48 hrs by SRB assay relative to vehicle-treated control; assay type: cell-based; details: raw264.7, 48 h
[5] = target: T1, Oxysterols receptor LXR-beta (Homo sapiens); assay: Agonist activity at human LXRbeta transfected in HEK293 cells at 1 uM after 24 hrs by luciferase reporter gene assay relative to vehicle-treated control; assay type: cell-based
[6] = target: T2, Oxysterols receptor LXR-beta (Mus musculus); assay: Agonist activity at LXRbeta in mouse RAW264.7 cells assessed as upregulation of ABCA1 protein expression at 1 uM after 18 to 48 hrs by Western blot analysis; assay type: cell-based
[7] = target: T2, Oxysterols receptor LXR-beta (Mus musculus); assay: Agonist activity at LXRbeta in mouse BV2 cells assessed as upregulation of ABCA1 protein expression at 1 uM after 12 to 48 hrs by Western blot analysis; assay type: cell-based; details: BV-2
HepG2 = assay: Induction of cytoplasmic lipid accumulation in human HepG2 cells at 10 uM after 4 days by oil red O staining-based light microscopic analysis; assay type: cell-based; details: hepg2, 96 h
Mus musculus = assay: Antialzheimer activity in double transgenic B6C3 mouse overexpressing APP swedish mutant and PSEN1dE9 assessed as reduction of amyloid beta42 plaque number in brain at 10 mg/kg, ip administered 3 times per week measured after 6 weeks by thioflavin S staining-based fluorescence microscopic analysis relative to vehicle-treated control; assay type: functional, organism-based; design: dose 10 mg/kg
[8] = target: T2, Oxysterols receptor LXR-beta (Mus musculus); assay: Agonist activity at LXRbeta in mouse BV2 cells assessed as upregulation of apoE protein expression at 10 uM after 48 hrs by Western blot analysis relative to vehicle-treated control; assay type: cell-based; details: BV-2
[9] = target: T3, Oxysterols receptor LXR-alpha (Homo sapiens) (UniProt Q13133); assay: Agonist activity at human LXRalpha transfected in HEK293 cells at 1 uM after 24 hrs by luciferase reporter gene assay relative to vehicle-treated control; assay type: cell-based
T3 sequence (whole entry): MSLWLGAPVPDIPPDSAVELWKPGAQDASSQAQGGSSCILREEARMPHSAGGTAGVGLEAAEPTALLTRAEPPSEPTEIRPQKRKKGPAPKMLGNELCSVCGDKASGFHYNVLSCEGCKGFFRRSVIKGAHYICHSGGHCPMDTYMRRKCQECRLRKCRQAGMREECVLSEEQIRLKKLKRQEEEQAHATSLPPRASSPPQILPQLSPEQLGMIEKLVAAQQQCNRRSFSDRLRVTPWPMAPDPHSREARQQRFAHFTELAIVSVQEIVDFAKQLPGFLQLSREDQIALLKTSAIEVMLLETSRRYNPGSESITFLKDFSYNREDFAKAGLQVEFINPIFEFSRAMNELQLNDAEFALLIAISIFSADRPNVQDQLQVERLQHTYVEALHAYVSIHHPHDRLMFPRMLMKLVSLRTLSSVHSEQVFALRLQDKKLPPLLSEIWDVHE

Which results are given for `Cc1ccc(/C=C/C(=O)c2ccc(N)cc2O)o1`?
fold change (FC) [1]: 1.07; fold change (FC) [2]: 1.9; Activity [3]: 29%; Activity [4]: Dose-dependent effect; Activity (RAW264.7): Non-toxic; fold change (FC) [5]: 1.79; Activity [6]: Active; Activity [7]: Active; Activity (HepG2): Toxic; Activity (Mus musculus): Active; fold change (FC) [8]: 2.7; fold change (FC) [9]: 1.19
